Key:
[1] = test system: ASPC-1; experiment: 14C-fucose binding to cells
Protocol: (§1) Binding of fucose (fucose refers to L-fucose, unless otherwise stated) to the fucosylated sugar chain high-producing cell line ASPC-1 and fucosylated sugar chain low-producing cell line PANC-1 was investigated using radiolabeled fucose.
(§2) In a 12-well culture plate, 1×10^5 cells were seeded and cultured overnight, and ^14C-fucose (specific activity: 55 mCi/mmol) diluted with BSA-PBS at a concentration of 0-200 nM was added to the cells and cultured at 4° C. for 1 hr. The cells were washed with cold BSA-PBS, lysed by 1% Triton X100/PBS-0.25% trypsin, and the radioactivity of the ^14C-fucose bound to the cell membrane was measured (FIGS. 3 and 4).
In another experiment, in a 12-well culture plate, 2×10^5 cells were seeded and cultured overnight, 10 nmol of ^14C-fucose (specific activity: 55 mCi/mmol) were added to the cells either singly or together with 1 pmol of fucose, and cultured at 4° C. for 1, 3, or 24 hr. The cells under each condition were washed with cold BSA-PBS, lysed by 1% Triton X100/PBS-0.25% trypsin, and the radioactivity of the ^14C-fucose was measured (FIG. 5).

[2] = test system: PANC-1; experiment: 14C-fucose binding to cells; details: 14C-fucose 0-200 nM, 4° C., 1 hr
Protocol: as §1, §2

## C[C@H](O)[C@@H](O)[C@@H](O)[C@H](O)C=O [fucose, L-fucose]
[1]; 10 nmol 14C-fucose with non-labeled fucose, 4° C., 1, 3 or 24 hr
  binding of 14C-fucose in competition with excessive non-labeled fucose: inhibited
[1]; 14C-fucose 0-200 nM, 4° C., 1 hr, compared with PANC-1
  binding of fucose to cells (affinity): affinity is higher
[2]
  binding of fucose to cells: binds to ASPC-1 and PANC-1 via a receptor-like mechanism
